These results are taken from patent US20160101054A1, “SUSTAINED DELIVERY OF DRUGS FROM BIODEGRADABLE POLYMERIC MICROPARTICLES” (Yale University, priority 2008, published 2016).

Experiment [1] deals with EGFR. Particulars: in vivo; cited from earlier work.
Experiment [2] has as its target T1, EGFR (Rattus norvegicus, UniProt G3V6K6).
T1 construct: cells expressing EGFR at normal levels; endogenous in cells; host or cells: FR3T3 (Fisher rat 3T3 fibroblasts)
Briefly: Bioactivity of AG1478: western blot of phosphorylated EGFR in FR3T3 cells after EGF. The following applies: for bioactivity by western blot of activated EGFR: FR3T3 cells expressing EGFR at normal levels, concentration equal to IC50, EGF 100 ng/mL. Format: cell-based. Here is the method:
Microsphere size was ascertained using a Multisizer™ 3 Coulter Counter® and confirmed visually via SEM. […] Relative bioactivity was determined using the gray mean value for each phospho-EGFR band.

Regarding `COc1cc2ncnc(Nc3cccc(Cl)c3)c2cc1OC` [AG1478], the “EGFR upregulation and activation of astrocytes, survival of RGCs” value with EGFR [1] was “reverses this upregulation and activation of astrocytes and increases the survival of RGCs”. Besides, the “bioactivity by western blot of activated EGFR” value at EGFR [2] (listed as non-encapsulated AG1478) was determined as 89±4.5%; at EGFR [2] (listed as non-encapsulated inhibitor) it was 89±2.7%. The “inhibition in FR3T3 cells” value against EGFR [2] (at 3 mM (~[…] polymer)) is recorded as “greater than 95%”.
